Source: patent US8802597B2, “Herbicidal pyrimidines” (E I du Pont de Nemours and Company, priority 2003, dated 2014)

Experiments:
Experiment in all cases: Test C pre/postemergence
Format in all cases: in vivo
[1] = system: velvetleaf (Abutilon theophrasti); conditions: Abutilon theophrasti, post-emergence, Postemergence
Summary of the method: (§1)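 We sprayed seeded pots preemergence and 2–18 cm seedlings postemergence with test chemicals in a non-phytotoxic solvent mixture including surfactant. Greenhouse plants were visually compared with untreated controls at 12 to 14 days and scored 0 (no effect) to 100 (complete control).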

[2] = system: woolly cupgrass (Eriochloa villosa); conditions: Eriochloa villosa, post-emergence, Postemergence
Summary of the method: as §1

[3] = system: goosegrass (Eleusine indica); conditions: Eleusine indica, post-emergence, Postemergence
Summary of the method: as §1

[4] = system: common ragweed (Ambrosia elatior); conditions: Ambrosia artemisiifolia, post-emergence, Postemergence
Summary of the method: as §1

[5] = system: soybean (Glycine max); conditions: Glycine max, post-emergence, Postemergence
Summary of the method: as §1

[6] = system: giant foxtail (Setaria faberii); conditions: Setaria faberi, post-emergence, Postemergence
Summary of the method: as §1

[7] = system: lambsquarters (Chenopodium album); conditions: Chenopodium album, post-emergence, Postemergence
Summary of the method: as §1

[8] = system: bermudagrass (Cynodon dactylon); conditions: Cynodon dactylon, post-emergence, Postemergence
Summary of the method: as §1

[9] = system: morningglory (Ipomoea coccinea); conditions: Ipomoea, post-emergence, Postemergence
Summary of the method: as §1

[10] = system: Surinam grass (Brachiaria decumbens); conditions: Urochloa decumbens, post-emergence, Postemergence
Summary of the method: as §1

[11] = system: yellow nutsedge (Cyperus esculentus); conditions: Cyperus, post-emergence, Postemergence
Summary of the method: as §1

COC(=O)c1nc(C2CC2)nc(N)c1I [Compound 7]
pest or weed control at 62 g/ha ([1]; 62 g ai/ha, scale 0 to 100 (0 no effect, 100 complete control), read-out: Velvetleaf plant response rating): 0% | pest or weed control at 125 g/ha ([1]; 125 g ai/ha, scale 0 to 100 (0 no effect, 100 complete control), read-out: Velvetleaf plant response rating): 10% | pest or weed control at 250 g/ha ([1]; 250 g ai/ha, scale 0 to 100, read-out: Plant response rating, Velvetleaf): 35% | pest or weed control at 500 g/ha ([1]; 500 g ai/ha, scale 0 to 100, read-out: Plant response rating, Velvetleaf): 40% | pest or weed control at 62 g/ha ([2]; 62 g ai/ha, scale 0 to 100 (0 no effect, 100 complete control), read-out: Cupgrass, Woolly plant response rating): 0% | pest or weed control at 125 g/ha ([2]; 125 g ai/ha, scale 0 to 100 (0 no effect, 100 complete control), read-out: Cupgrass, Woolly plant response rating): 0% | pest or weed control at 250 g/ha ([2]; 250 g ai/ha, scale 0 to 100, read-out: Plant response rating, Cupgrass, Woolly): 0% | pest or weed control at 500 g/ha ([2]; 500 g ai/ha, scale 0 to 100, read-out: Plant response rating, Cupgrass, Woolly): 20% | pest or weed control at 62 g/ha ([3]; 62 g ai/ha, scale 0 to 100 (0 no effect, 100 complete control), read-out: Goosegrass plant response rating): 0% | pest or weed control at 125 g/ha ([3]; 125 g ai/ha, scale 0 to 100 (0 no effect, 100 complete control), read-out: Goosegrass plant response rating): 0% | pest or weed control at 250 g/ha ([3]; 250 g ai/ha, scale 0 to 100, read-out: Plant response rating, Goosegrass): 0% | pest or weed control at 500 g/ha ([3]; 500 g ai/ha, scale 0 to 100, read-out: Plant response rating, Goosegrass): 0% | pest or weed control at 62 g/ha ([4]; 62 g ai/ha, scale 0 to 100 (0 no effect, 100 complete control), read-out: Ragweed plant response rating): 25% | pest or weed control at 125 g/ha ([4]; 125 g ai/ha, scale 0 to 100 (0 no effect, 100 complete control), read-out: Ragweed plant response rating): 35% | pest or weed control at 250 g/ha ([4]; 250 g ai/ha, scale 0 to 100, read-out: Plant response rating, Ragweed): 65% | pest or weed control at 500 g/ha ([4]; 500 g ai/ha, scale 0 to 100, read-out: Plant response rating, Ragweed): 75% | plant injury at 62 g/ha ([5]; 62 g ai/ha, scale 0 to 100 (0 no effect, 100 complete control), read-out: Soybean plant response rating): 25% | plant injury at 125 g/ha ([5]; 125 g ai/ha, scale 0 to 100 (0 no effect, 100 complete control), read-out: Soybean plant response rating): 25% | plant injury at 250 g/ha ([5]; 250 g ai/ha, scale 0 to 100, read-out: Plant response rating, Soybean): 35% | plant injury at 500 g/ha ([5]; 500 g ai/ha, scale 0 to 100, read-out: Plant response rating, Soybean): 60% | pest or weed control at 125 g/ha ([6]; 125 g ai/ha, scale 0 to 100 (0 no effect, 100 complete control), read-out: Foxtail, Giant plant response rating): 0% | pest or weed control at 500 g/ha ([6]; 500 g ai/ha, scale 0 to 100, read-out: Plant response rating, Foxtail, Giant): 10% | pest or weed control at 62 g/ha ([6]; 62 g ai/ha, scale 0 to 100 (0 no effect, 100 complete control), read-out: Foxtail, Giant plant response rating): 0% | pest or weed control at 250 g/ha ([6]; 250 g ai/ha, scale 0 to 100, read-out: Plant response rating, Foxtail, Giant): 0% | pest or weed control at 62 g/ha ([7]; 62 g ai/ha, scale 0 to 100 (0 no effect, 100 complete control), read-out: Lambsquarters plant response rating): 50% | pest or weed control at 125 g/ha ([7]; 125 g ai/ha, scale 0 to 100 (0 no effect, 100 complete control), read-out: Lambsquarters plant response rating): 60% | pest or weed control at 250 g/ha ([7]; 250 g ai/ha, scale 0 to 100, read-out: Plant response rating, Lambsquarters): 70% | pest or weed control at 500 g/ha ([7]; 500 g ai/ha, scale 0 to 100, read-out: Plant response rating, Lambsquarters): 80% | pest or weed control at 62 g/ha ([8]; 62 g ai/ha, scale 0 to 100 (0 no effect, 100 complete control), read-out: Bermudagrass plant response rating): 0% | pest or weed control at 125 g/ha ([8]; 125 g ai/ha, scale 0 to 100, read-out: Plant response rating, Bermudagrass): 0% | pest or weed control at 250 g/ha ([8]; 250 g ai/ha, scale 0 to 100, read-out: Plant response rating, Bermudagrass): 0% | pest or weed control at 500 g/ha ([8]; 500 g ai/ha, scale 0 to 100, read-out: Plant response rating, Bermudagrass): 0% | pest or weed control at 125 g/ha ([9]; 125 g ai/ha, scale 0 to 100 (0 no effect, 100 complete control), read-out: Morningglory plant response rating): 50% | pest or weed control at 250 g/ha ([9]; 250 g ai/ha, scale 0 to 100, read-out: Plant response rating, Morningglory): 55% | pest or weed control at 500 g/ha ([9]; 500 g ai/ha, scale 0 to 100, read-out: Plant response rating, Morningglory): 65% | pest or weed control at 125 g/ha ([10]; 125 g ai/ha, scale 0 to 100 (0 no effect, 100 complete control), read-out: Surinam Grass plant response rating): 0% | pest or weed control at 500 g/ha ([10]; 500 g ai/ha, scale 0 to 100, read-out: Plant response rating, Surinam Grass): 0% | pest or weed control at 62 g/ha ([10]; 62 g ai/ha, scale 0 to 100 (0 no effect, 100 complete control), read-out: Surinam Grass plant response rating): 0% | pest or weed control at 250 g/ha ([10]; 250 g ai/ha, scale 0 to 100, read-out: Plant response rating, Surinam Grass): 0% | pest or weed control at 62 g/ha ([11]; 62 g ai/ha, scale 0 to 100 (0 no effect, 100 complete control), read-out: Nutsedge, Yellow plant response rating): 0% | pest or weed control at 125 g/ha ([11]; 125 g ai/ha, scale 0 to 100 (0 no effect, 100 complete control), read-out: Nutsedge, Yellow plant response rating): 0% | pest or weed control at 250 g/ha ([11]; 250 g ai/ha, scale 0 to 100, read-out: Plant response rating, Nutsedge, Yellow): 0% | pest or weed control at 500 g/ha ([11]; 500 g ai/ha, scale 0 to 100, read-out: Plant response rating, Nutsedge, Yellow): 0%
